PubChem BioAssay AID732 (Emory University Molecular Libraries Screening Center, 2007)
Several values for one entry are separate records, joined by “and”; a condition that tells them apart may be missing. Equal values may be shown once. Activity calls are given as the source filed them. The rule behind the calls is not given here.

Tested on: in vivo angiogenesis, blood vessel count
Assay: angiogenesis inhibition in living animals, in vivo study, HTS (AID 732);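 note: zebrafish embryos dosed at one day post fertilization; 0% = reference inhibitor and 100% = plate mean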
Conditions: stronger effect = lower value;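 tested at 30 µM in the well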

Structure (SMILES) | vessel count % control
O=c1[nH]c(=O)n([C@H]2C[C@H](O)[C@@H](CO)O2)cc1/C=C/Br | 93% (inactive)
CCN(CC)CC#CCOC(=O)C(O)(c1ccccc1)C1CCCCC1 (centres undefined) | 125% (inactive)
Ic1ccc(N2CCN(Cc3c[nH]c4ncccc34)CC2)cc1 | 99.4% (inactive)
NC(=O)CN1CCCC1=O | 99.2% (inactive)
COc1cc2c(cc1C(F)(F)F)N(C(=O)Nc1cc(F)cc(-c3cccnc3)c1)CC2 | 95.3% (inactive)
O=[N+]([O-])c1ccc(CSc2ncnc3c2ncn3[C@@H]2O[C@H](CO)[C@H](O)C2O)cc1 (some centres undefined) | 80.2% (inactive)
NCCCCCCCCCCN | 146% (inactive)
CCn1cnc2c(Nc3cccc(Cl)c3)nc(N[C@@H]3CCCC[C@@H]3N)nc21 | 88.4% (inactive)
COc1cc2c(c(OC)c1OC)-c1ccc(OC)c(=O)cc1[C@@H](NC(C)=O)CC2 | 116% (inactive)
CCO/C([O-])=N/c1c[n+](N2CCOCC2)no1 | 100% (inactive)
O=C(O)CCC(C(=O)O)N1C(=O)c2ccccc2C1=O (centres undefined) | 105% (inactive)
Cc1cccc(C#Cc2ccccc2)n1 | 92.1% (inactive)
CCCNC(C)C(=O)Nc1ccccc1C (centres undefined) | 108% (inactive)
COC(=O)c1cc2c(cn1)[nH]c1ccccc12 | 92.7% (inactive)
CCC1(O)CC2CN(CCc3c([nH]c4ccccc34)[C@@](C(=O)OC)(c3cc4c(cc3OC)N(C=O)C3[C@]45CCN4CC=C[C@@](CC)([C@@H](OC(C)=O)[C@]3(O)C(=O)OC)[C@H]45)C2)C1 (some centres undefined) | 109% (inactive)
CCN(CC)CCNC(=O)c1cc(S(C)(=O)=O)ccc1OC | 68.7% (inactive)
NCC(CC(=O)O)c1ccc(Cl)cc1 (centres undefined) | 100% (inactive)
c1ccc2sc(C3(N4CCCCC4)CCCCC3)cc2c1 | 93.4% (inactive)
COc1cc2nc(N3CCN(C(=O)OCc4ccccc4)C(C(=O)NC(C)(C)C)C3)nc(N)c2cc1OC (centres undefined) | 104% (inactive)
CCCCC[C@H](CC(=O)NO)C(=O)N[C@H](C(=O)N1CCC[C@H]1CO)C(C)C | 103% (inactive)
NCCc1c[nH]c2ccccc12 | 118% (inactive)
CCCN1CCc2cc(O)cc3c2[C@H]1Cc1ccc(O)c(O)c1-3 | 114% (inactive)
NCCCCNCCCN | 122% (inactive)

Structure (SMILES) | vessel count % control
CCN(CC)CCCCCCCCOC(=O)c1cc(OC)c(OC)c(OC)c1 | 91.4% (inactive)
COc1cc(C(=O)OCCCN2CCCN(CCCOC(=O)c3cc(OC)c(OC)c(OC)c3)CC2)cc(OC)c1OC | 116% (inactive)
NC[C@H](O)c1ccc(O)c(O)c1 | 86.6% (inactive)
CN(C)C(=O)Oc1ccc[n+](C)c1 | 110% (inactive)
NC(=O)OCC(COC(N)=O)c1ccccc1 | 62.7% (inactive)
CC(O)C(C)OC(=O)[C@@H]1C[C@@H]2c3cccc4c3c(cn4C(C)C)C[C@H]2N(C)C1 (some centres undefined) | 90.9% (inactive)
O=c1c(O)c(-c2ccc(O)cc2O)oc2cc(O)cc(O)c12 | 108% (inactive)
N[C@H](C(=O)O)[C@H](O)C(=O)O | 90.4% (inactive)
O=C(c1ccc(OCCN2CCCCC2)cc1)c1c(-c2ccc(O)cc2)sc2cc(O)ccc12 | 87.4% (inactive)
CCNC(=O)N1CCN(CCCC(c2ccc(F)cc2)c2ccc(F)cc2)CC1 | 83.9% (inactive)
CN=C(NC#N)NCCSCc1nc[nH]c1C | 112% (inactive)
Cc1cnc(C(=O)NCCc2ccc(S(=O)(=O)NC(=O)NC3CCCCC3)cc2)cn1 | 106% (inactive)
COC(=O)c1c(-c2cc(OC)c(OC)c(OC)c2)c2ccnc(OCc3ncccn3)c2c(=O)n1Cc1ccnc(C)c1 | 99.4% (inactive)
CSc1ccc(C(=O)c2[nH]c(=O)[nH]c2C)cc1 | 76.7% (inactive)
CCn1c(=O)c2[nH]c(-c3ccccc3)nc2n(CC)c1=O | 63.2% (inactive)
Cn1cnc([N+](=O)[O-])c1Sc1ncnc2nc[nH]c12 | 81.5% (inactive)
CCN1C[C@]2(C)CC[C@H](O)[C@@]34C5C[C@@H]6[C@@H](OC)C[C@@](O)(C5[C@H]6O)[C@@H](CC23)C14 (some centres undefined) | 76.7% (inactive)
CC(C)NCC(O)COc1ccc(CCOCC2CC2)cc1 (centres undefined) | 94.3% (inactive)
OCC1NCC(O)C(O)C1O (centres undefined) | 97.9% (inactive)
CCCN(CCC)CCc1c[nH]c2ccc(C(N)=O)cc12 | 80.1% (inactive)
CNC1(C)C2CCC(C2)C1(C)C (centres undefined) | 107% (inactive)
CCCCCCCCCC[Si](C)(C)CCC(=O)NC(Cc1ccc(C)cc1)c1ccccc1 (centres undefined) | 109% (inactive)
CN1C(=O)CCS(=O)(=O)C1c1ccc(Cl)cc1 (centres undefined) | 97% (inactive)

Structure (SMILES) | vessel count % control
NCC(CP(=O)(O)O)c1ccc(Cl)cc1 (centres undefined) | 116% (inactive)
CC(N=C(NC#N)Nc1ccncc1)C(C)(C)C (centres undefined) | 98.9% (inactive)
O=c1[nH]c2cc(Cl)c(Cl)cc2[nH]c1=O | 109% (inactive)
Brc1ccc([C@H]2CN3CCSC3=N2)cc1 | 94.7% (inactive)
O=[N+]([O-])c1ccc(-c2nc(-c3ccc(F)cc3)c(-c3ccncc3)[nH]2)cc1 | 124% (inactive)
COc1ccc2cc([C@H](C)C(=O)O)ccc2c1 | 101% (inactive)
Cc1cc(N)c2ccccc2[n+]1CCCCCCCCCCCCCC[n+]1c(C)cc(N)c2ccccc21 | 79.9% (inactive)
NCCc1ccc(O)cc1 | 90.2% (inactive)
CCCN(CCC)CCc1cccc2c1CC(=O)N2 | 96.5% (inactive)
CC(=O)NCCc1ccc(O)c(O)c1 | 105% (inactive)
CC[C@@]1(O)C(=O)OCc2c1cc1n(c2=O)Cc2cc3ccccc3nc2-1 | 0% (inactive)
C[C@H]1CC2C3CCC4=CC(=O)C=C[C@]4(C)[C@@]3(Cl)[C@@H](O)C[C@]2(C)[C@@]1(O)C(=O)CO (some centres undefined) | 120% (inactive)
CCOC(=O)C12CC1/C(=N/O)c1ccccc1O2 (centres undefined) | 104% (inactive)
c1ccc2nc(C3=NCCN3)ccc2c1 | 97.4% (inactive)
Cc1c2ccncc2c(C)c2c1[nH]c1ccccc12 | 110% (inactive)
COc1ccc(OC)c(C(O)C(C)N)c1 (centres undefined) | 94.8% (inactive)
O=C1c2c(O)ccc(O)c2C(=O)c2c(NCCNCCO)ccc(NCCNCCO)c21 | 136% (inactive)
CC(=O)OCC(=O)[C@@]1(O)CC[C@H]2[C@@H]3CCC4=CC(=O)CC[C@]4(C)[C@H]3C(=O)C[C@@]21C | 97.3% (inactive)
O=c1onc2n1-c1cc(Br)ccc1OC2 | 95.9% (inactive)
CC(C)NC[C@H](O)COc1cccc2[nH]ccc12 | 97.6% (inactive) and 70.7% (inactive)
FC(F)(F)c1ccccc1-n1ccnc1 | 93.4% (inactive)
CC(=O)[C@H]1CC[C@H]2[C@@H]3CCC4=CC(=O)CC[C@]4(C)[C@H]3CC[C@]12C | 102% (inactive)
CCN(CC)C(=O)N[C@@H]1C=C2c3cccc4[nH]cc(c34)C[C@H]2N(C)C1 | 75.3% (inactive)
